Source: patent publication US8242118B2, “Arylsulfonamide derivatives for use as CCR3 antagonists in the treatment of inflammatory and immunological disorders” (Axikin Pharmaceuticals Inc., priority 2001, dated 2012)

These compounds were tested against T1, Human CCR3 (Homo sapiens, UniProt P51677) (assay: Receptor binding assay (RBA), [125I]-eotaxin). Details: human CCR3-transformed K562 cells, 0.1 nM [125I]-eotaxin; compounds of about 40 to 90% purity; read-out: Activity grade RBA (IC50 class).
T1 construct: The cloned CCR3 cDNA was constructed with pcDNA3 vector and transfected into a IC562 cell line; expressed in transfected cells
T1 sequence (P51677 1-355): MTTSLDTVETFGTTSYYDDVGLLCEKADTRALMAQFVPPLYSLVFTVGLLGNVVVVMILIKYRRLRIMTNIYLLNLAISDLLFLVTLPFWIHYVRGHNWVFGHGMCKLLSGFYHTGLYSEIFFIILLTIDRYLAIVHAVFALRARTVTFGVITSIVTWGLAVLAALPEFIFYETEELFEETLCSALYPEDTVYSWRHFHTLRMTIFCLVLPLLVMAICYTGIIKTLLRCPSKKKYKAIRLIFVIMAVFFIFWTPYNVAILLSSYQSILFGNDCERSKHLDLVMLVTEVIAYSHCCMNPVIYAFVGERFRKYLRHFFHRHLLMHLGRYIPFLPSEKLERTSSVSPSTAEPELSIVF
Summary of the method: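 Butyrate-pretreated (5 mM, 20-24 h) CCR3-transfected K562 cells incubated 1 h at room temperature with compound and 0.1 nM final [125I]-eotaxin in HEPES pH 7.6 buffer; bound radioactivity counted after filtration. Non-specific binding with 500 nM unlabeled eotaxin; IC50 from inhibition curve.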

First: Cc1ccccc1Nc1ccc([N+](=O)[O-])cc1S(=O)(=O)N1CCNCC1 [Example 3-3]
Second: O=[N+]([O-])c1ccc(Nc2ccccc2Cl)c(S(=O)(=O)N2CCNCC2)c1 [Example 3-6]
The IC50 of the first is lower: 1000 to 10000 nM for the first, greater than 10000 nM for the second.

Compared with `Cc1cc(C)cc(Oc2ccc(S(=O)(=O)N(C)C)cc2S(=O)(=O)N2CCNCC2)c1.Cl` [Example 10-2], `Cc1cc(C)cc(Oc2ccc(I)cc2S(=O)(=O)N2CCNCC2)c1.Cl` [Example 5-6] is lower in IC50: 1000 to 10000 nM for the first, less than 1000 nM for the second.

`Cc1cc(C)cc(Oc2ccc(NC(=O)c3cccc4ccccc34)cc2S(=O)(=O)N2CCNCC2)c1` [Example 7-7] and `Cc1cc(C)cc(Oc2ccc(NC(=O)c3ccccc3)cc2S(=O)(=O)N2CCNCC2)c1` [Example 7-5] cannot be ordered by IC50: greater than 10000 nM for the first, greater than 10000 nM for the second.

First: Cc1cc(C)cc(Oc2ccc([N+](=O)[O-])cc2S(=O)(=O)NCCN2CCCCC2)c1 [Example 4-2]
Second: Cc1cc(C)cc(Oc2ccc([N+](=O)[O-])cc2S(=O)(=O)NCCN2CCOCC2)c1 [Example 4-3]
The IC50 of the first is lower: less than 1000 nM for the first, 1000 to 10000 nM for the second.

`CCC(CC)N1CCN(S(=O)(=O)c2cc([N+](=O)[O-])ccc2Oc2cc(C)cc(C)c2)CC1` [Example 4-18] and `CCC(C)N1CCN(S(=O)(=O)c2cc([N+](=O)[O-])ccc2Oc2cc(C)cc(C)c2)CC1` (stereo not shown) [Example 4-16] cannot be ordered by IC50: less than 1000 nM for the first, less than 1000 nM for the second.

`Cc1cc(C)cc(Oc2ccc([N+](=O)[O-])cc2S(=O)(=O)N2CCC(N(C)C)CC2)c1.Cl` [Example 4-24] and `Cc1cc(C)cc(Oc2ccc([N+](=O)[O-])cc2S(=O)(=O)N2CC[C@@H](N(C)C)C2)c1` [Example 4-13] cannot be ordered by IC50: less than 1000 nM for the first, less than 1000 nM for the second.

`Cc1cc(C)cc(Oc2ccc(NC(=O)C(C)(C)C)cc2S(=O)(=O)N2CCNCC2)c1` [Example 7-3] and `CC(=O)Nc1ccc(Oc2cc(C)cc(C)c2)c(S(=O)(=O)N2CCNCC2)c1` [Example 7-2] cannot be ordered by IC50: greater than 10000 nM for the first, greater than 10000 nM for the second.

`O=[N+]([O-])c1ccc(Oc2cc(Cl)cc(Cl)c2)c(S(=O)(=O)N2CCC(N3CCCC3)C2)c1` (stereo not shown) [Example 4-38] and `O=[N+]([O-])c1ccc(Oc2cc(Cl)cc(Cl)c2)c(S(=O)(=O)N2CCC(N3CCCCC3)CC2)c1` [Example 4-29] cannot be ordered by IC50: less than 1000 nM for the first, less than 1000 nM for the second.

`CCN1CCN(S(=O)(=O)c2cc(Cl)ccc2Oc2cc(C)cc(C)c2)CC1` [Example 5-4] and `CCN1CCN(S(=O)(=O)c2cc(I)ccc2Oc2cc(C)cc(C)c2)CC1` [Example 5-5] cannot be ordered by IC50: less than 1000 nM for the first, less than 1000 nM for the second.

`Cc1cc(C)cc(Oc2ccc([N+](=O)[O-])cc2S(=O)(=O)N(C)CCN(C)C)c1` [Example 4-14] and `CN(C)CCN(C)S(=O)(=O)c1cc([N+](=O)[O-])ccc1Oc1cc(Cl)cc(Cl)c1` [Example 4-20] cannot be ordered by IC50: less than 1000 nM for the first, less than 1000 nM for the second.

`COCCCN1CCN(S(=O)(=O)c2cc([N+](=O)[O-])ccc2Oc2cc(Cl)cc(Cl)c2)CC1` [Example 4-36] and `COCCCN1CCN(S(=O)(=O)c2cc(C#N)ccc2Oc2cc(Cl)cc(Cl)c2)CC1` [Example 13-7] cannot be ordered by IC50: less than 1000 nM for the first, less than 1000 nM for the second.

`CN1CCC(N(C)S(=O)(=O)c2cc([N+](=O)[O-])ccc2Oc2cc(Cl)cc(Cl)c2)C1` (stereo not shown) [Example 4-23] and `CCN(CC)C1CCN(S(=O)(=O)c2cc([N+](=O)[O-])ccc2Oc2cc(Cl)cc(Cl)c2)C1` (stereo not shown) [Example 4-21] cannot be ordered by IC50: less than 1000 nM for the first, less than 1000 nM for the second.

`Cc1cc(C)cc(Oc2ccc(NC(=O)CCc3ccccc3)cc2S(=O)(=O)N2CCNCC2)c1` [Example 7-8] and `Cc1cc(C)cc(Oc2ccc(NC(=O)c3cccs3)cc2S(=O)(=O)N2CCNCC2)c1` [Example 7-9] cannot be ordered by IC50: greater than 10000 nM for the first, greater than 10000 nM for the second.

`CC1CCCCN1CCCNS(=O)(=O)c1cc([N+](=O)[O-])ccc1Sc1cc(Cl)cc(Cl)c1` (stereo not shown) [Example 2-13] and `O=[N+]([O-])c1ccc(Sc2cc(Cl)cc(Cl)c2)c(S(=O)(=O)NCCN2CCCCC2)c1` [Example 2-24] cannot be ordered by IC50: less than 1000 nM for the first, less than 1000 nM for the second.

`Cc1cc(C)cc(Oc2ccc([N+](=O)[O-])cc2S(=O)(=O)N2CCN(CC3CCCO3)CC2)c1` (stereo not shown) [Example 4-26] and `O=[N+]([O-])c1ccc(Oc2cc(Cl)cc(Cl)c2)c(S(=O)(=O)N2CCN(CC3CCCO3)CC2)c1` (stereo not shown) [Example 4-27] cannot be ordered by IC50: less than 1000 nM for the first, less than 1000 nM for the second.

Compared with `N#Cc1ccc(Oc2cc(Cl)cc(Cl)c2)c(S(=O)(=O)N2C[C@@H]3CCCN[C@@H]3C2)c1` [Example 13-5], `N#Cc1ccc(Oc2cc(Cl)cc(Cl)c2)c(S(=O)(=O)N2C[C@H]3C[C@@H]2CN3)c1` [Example 13-4] is lower in IC50: 1000 to 10000 nM for the first, less than 1000 nM for the second. The second is the more potent here.

Compared with `Cc1cc(C)cc(Oc2ccc(N)cc2S(=O)(=O)N2CCNCC2)c1.O=C(O)C(F)(F)F` [Example 5-3], `Cc1cc(C)cc(Oc2ccc(F)cc2S(=O)(=O)N2CCNCC2)c1` [Example 6-3] is lower in IC50: greater than 10000 nM for the first, less than 1000 nM for the second. The second is the more potent here.

First: O=[N+]([O-])c1ccc(Nc2cc(Cl)cc(Cl)c2)c(S(=O)(=O)N2CCNCC2)c1 [Example 3-2]
Second: Cc1cccc(Nc2ccc([N+](=O)[O-])cc2S(=O)(=O)N2CCNCC2)c1 [Example 3-4]
The IC50 of the first is lower: less than 1000 nM for the first, 1000 to 10000 nM for the second. The first is the more potent here.

`Cl.N[C@@H]1CCN(S(=O)(=O)c2cc([N+](=O)[O-])ccc2Sc2cc(Cl)cc(Cl)c2)C1` [Example 2-11] and `N[C@H]1CCN(S(=O)(=O)c2cc([N+](=O)[O-])ccc2Sc2cc(Cl)cc(Cl)c2)C1` [Example 2-12] cannot be ordered by IC50: less than 1000 nM for the first, less than 1000 nM for the second.

`Cc1ccc(N2CCN(S(=O)(=O)c3cc([N+](=O)[O-])ccc3Oc3cc(C)cc(C)c3)CC2)cc1` [Example 4-8] and `Cc1cc(C)cc(Oc2ccc([N+](=O)[O-])cc2S(=O)(=O)N2CCN(c3ccccc3)CC2)c1` [Example 4-7] cannot be ordered by IC50: greater than 10000 nM for the first, greater than 10000 nM for the second.

`Cc1ccc(Nc2ccc([N+](=O)[O-])cc2S(=O)(=O)N2CCNCC2)cc1` [Example 3-5] and `Cc1ccc(C(=O)Nc2ccc(Oc3cc(C)cc(C)c3)c(S(=O)(=O)N3CCNCC3)c2)cc1` [Example 7-6] cannot be ordered by IC50: greater than 10000 nM for the first, greater than 10000 nM for the second.

`O=[N+]([O-])c1ccc(Sc2cc(Cl)cc(Cl)c2)c(S(=O)(=O)N2CCC(N3CCCCC3)CC2)c1` [Example 2-3] and `O=[N+]([O-])c1ccc(Sc2cc(Cl)cc(Cl)c2)c(S(=O)(=O)N2CCC(N3CCCC3)CC2)c1` [Example 2-22] cannot be ordered by IC50: less than 1000 nM for the first, less than 1000 nM for the second.

First: N#Cc1ccc(Oc2cc(Cl)cc(Cl)c2)c(S(=O)(=O)N2CCCC3CN(Cc4ccccc4)CC32)c1 (stereo not shown) [Example 13-2]
Second: O=[N+]([O-])c1ccc(Oc2cc(Cl)cc(Cl)c2)c(S(=O)(=O)N2CCC[C@H]2CN2CCCC2)c1 [Example 4-22]
The IC50 of the first is higher: 1000 to 10000 nM for the first, less than 1000 nM for the second. The second is the more potent here.

`Cc1cc(C)cc(Oc2ccc([N+](=O)[O-])cc2S(=O)(=O)N2CCN(C(C)C)CC2)c1` [Example 4-15] and `CCCC(C)N1CCN(S(=O)(=O)c2cc([N+](=O)[O-])ccc2Oc2cc(C)cc(C)c2)CC1` (stereo not shown) [Example 4-17] cannot be ordered by IC50: less than 1000 nM for the first, less than 1000 nM for the second.

`O=[N+]([O-])c1ccc(Oc2cc(Cl)cc(Cl)c2)c(S(=O)(=O)N2CCN(CCC(F)(F)F)CC2)c1` [Example 4-34] and `Cc1cc(C)cc(Oc2ccc([N+](=O)[O-])cc2S(=O)(=O)N2CCN(CCC(F)(F)F)CC2)c1` [Example 4-33] cannot be ordered by IC50: less than 1000 nM for the first, less than 1000 nM for the second.

`Cc1cc(C)cc(Oc2ccc([N+](=O)[O-])cc2S(=O)(=O)N2CCN(C3CCCCC3)CC2)c1` [Example 4-6] and `Cc1cc(C)cc(Oc2ccc([N+](=O)[O-])cc2S(=O)(=O)N2CCN(C3CCCC3)CC2)c1` [Example 4-19] cannot be ordered by IC50: less than 1000 nM for the first, less than 1000 nM for the second.

`CCN1CCC(N(CC)S(=O)(=O)c2cc([N+](=O)[O-])ccc2Oc2cc(C)cc(C)c2)C1` (stereo not shown) [Example 4-12] and `CCN1CCN(S(=O)(=O)c2cc([N+](=O)[O-])ccc2Oc2cc(C)cc(C)c2)CC1` [Example 4-5] cannot be ordered by IC50: less than 1000 nM for the first, less than 1000 nM for the second.

`Cc1cc(C)cc(Oc2ccc(NC(=O)CC(C)C)cc2S(=O)(=O)N2CCNCC2)c1` [Example 7-4] and `Cc1cc(C)cc(Oc2cc(C)c(N)cc2S(=O)(=O)N2CCNCC2)c1.Cl.Cl` [Example 5-7] cannot be ordered by IC50: greater than 10000 nM for the first, greater than 10000 nM for the second.

`CN(C)CCN(C)S(=O)(=O)c1cc([N+](=O)[O-])ccc1Sc1cc(Cl)cc(Cl)c1` [Example 2-23] and `Cc1cc(C)cc(Oc2ccc([N+](=O)[O-])cc2S(=O)(=O)N2CCN(C)CC2)c1` [Example 4-4] cannot be ordered by IC50: less than 1000 nM for the first, less than 1000 nM for the second.
